According to US12281080B2, “Quinoline-based compounds and methods of inhibiting CDK8/19” (University of South Carolina, priority 2018, dated 2025):

Assays:
[1] = target: ABL1(F317L)-phosphorylated (Homo sapiens (Human), UniProt P00519, F317L); assay: KINOMEscan scanMAX; assay type: binding; details: 2000 nM; read-out: Percent Control
[2] = target: ABL1(H396P)-phosphorylated (Homo sapiens (Human), UniProt P00519, H396P); assay: KINOMEscan scanMAX; assay type: binding; details: 2000 nM; read-out: Percent Control
ACVR1 = ACVR1 (Homo sapiens (Human), UniProt Q04771); assay: KINOMEscan scanMAX; assay type: binding; details: 2000 nM; read-out: Percent Control
ACVR2A = ACVR2A (Homo sapiens (Human), UniProt P27037); assay: KINOMEscan scanMAX; assay type: binding; details: 2000 nM; read-out: Percent Control
BMX = BMX (Homo sapiens (Human), UniProt P51813); assay: KINOMEscan scanMAX; assay type: binding; details: 2000 nM; read-out: Percent Control
CAMK2B = CAMK2B (Homo sapiens (Human), UniProt Q13554); assay: KINOMEscan scanMAX; assay type: binding; details: 2000 nM; read-out: Percent Control
CAMK2B, sequence (Q13554 whole entry): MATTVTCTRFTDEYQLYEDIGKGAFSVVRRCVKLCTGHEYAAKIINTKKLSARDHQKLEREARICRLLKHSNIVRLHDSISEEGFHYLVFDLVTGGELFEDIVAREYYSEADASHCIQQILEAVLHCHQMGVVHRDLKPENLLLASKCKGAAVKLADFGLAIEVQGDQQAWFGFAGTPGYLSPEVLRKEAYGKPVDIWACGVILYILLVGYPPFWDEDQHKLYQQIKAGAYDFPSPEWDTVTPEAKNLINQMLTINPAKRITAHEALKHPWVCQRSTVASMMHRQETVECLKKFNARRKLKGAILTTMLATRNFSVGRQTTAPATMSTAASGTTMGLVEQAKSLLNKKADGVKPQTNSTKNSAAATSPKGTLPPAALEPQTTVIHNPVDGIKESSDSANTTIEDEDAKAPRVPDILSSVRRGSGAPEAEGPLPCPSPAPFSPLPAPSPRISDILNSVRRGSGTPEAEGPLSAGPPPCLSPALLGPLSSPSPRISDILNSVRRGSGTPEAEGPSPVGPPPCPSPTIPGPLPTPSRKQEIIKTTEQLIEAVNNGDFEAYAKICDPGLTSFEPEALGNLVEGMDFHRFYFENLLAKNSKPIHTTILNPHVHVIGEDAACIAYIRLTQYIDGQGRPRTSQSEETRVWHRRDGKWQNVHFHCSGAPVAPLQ

CDC2L1 (CDK11B) = CDC2L1 (CDK11B) (Homo sapiens (Human), UniProt P21127); assay: KINOMEscan scanMAX; assay type: binding; details: 2000 nM; read-out: Percent Control
CDK2 = CDK2 (Homo sapiens (Human), UniProt P24941); assay: KINOMEscan scanMAX; assay type: binding; details: 2000 nM; read-out: Percent Control
CLK1 = CLK1 (Homo sapiens (Human), UniProt P49759); assay: KINOMEscan scanMAX; assay type: binding; details: 2000 nM; read-out: Percent Control
CLK1, sequence (P49759 whole entry): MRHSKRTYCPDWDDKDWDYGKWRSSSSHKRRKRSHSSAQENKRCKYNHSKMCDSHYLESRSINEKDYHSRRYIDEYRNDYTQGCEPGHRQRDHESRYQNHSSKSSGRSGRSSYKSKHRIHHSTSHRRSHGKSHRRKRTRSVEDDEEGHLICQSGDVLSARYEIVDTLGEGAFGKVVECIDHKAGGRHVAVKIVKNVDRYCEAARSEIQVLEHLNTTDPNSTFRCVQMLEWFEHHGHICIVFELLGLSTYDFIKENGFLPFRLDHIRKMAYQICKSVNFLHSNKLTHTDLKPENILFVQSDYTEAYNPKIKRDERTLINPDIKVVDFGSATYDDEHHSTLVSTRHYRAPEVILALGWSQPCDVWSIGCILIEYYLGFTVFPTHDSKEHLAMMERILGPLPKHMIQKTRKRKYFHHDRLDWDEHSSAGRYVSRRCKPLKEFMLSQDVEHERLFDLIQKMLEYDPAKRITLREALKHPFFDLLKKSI

CLK3 = CLK3 (Homo sapiens (Human), UniProt P49761); assay: KINOMEscan scanMAX; assay type: binding; details: 2000 nM; read-out: Percent Control
DAPK2 = DAPK2 (Homo sapiens (Human), UniProt Q9UIK4); assay: KINOMEscan scanMAX; assay type: binding; details: 2000 nM; read-out: Percent Control
EGFR = EGFR (Homo sapiens (Human), UniProt P00533); assay: KINOMEscan scanMAX; assay type: binding; details: 2000 nM; read-out: Percent Control
EPHA5 = EPHA5 (Homo sapiens (Human), UniProt P54756); assay: KINOMEscan scanMAX; assay type: binding; details: 2000 nM; read-out: Percent Control
EPHB2 = EPHB2 (Homo sapiens (Human), UniProt P29323); assay: KINOMEscan scanMAX; assay type: binding; details: 2000 nM; read-out: Percent Control
ERK2 (MAPK1) = ERK2 (MAPK1) (Homo sapiens (Human), UniProt P28482); assay: KINOMEscan scanMAX; assay type: binding; details: 2000 nM; read-out: Percent Control
GAK = GAK (Homo sapiens (Human), UniProt O14976); assay: KINOMEscan scanMAX; assay type: binding; details: 2000 nM; read-out: Percent Control
HUNK = HUNK (Homo sapiens (Human), UniProt P57058); assay: KINOMEscan scanMAX; assay type: binding; details: 2000 nM; read-out: Percent Control
HUNK, sequence (P57058 whole entry): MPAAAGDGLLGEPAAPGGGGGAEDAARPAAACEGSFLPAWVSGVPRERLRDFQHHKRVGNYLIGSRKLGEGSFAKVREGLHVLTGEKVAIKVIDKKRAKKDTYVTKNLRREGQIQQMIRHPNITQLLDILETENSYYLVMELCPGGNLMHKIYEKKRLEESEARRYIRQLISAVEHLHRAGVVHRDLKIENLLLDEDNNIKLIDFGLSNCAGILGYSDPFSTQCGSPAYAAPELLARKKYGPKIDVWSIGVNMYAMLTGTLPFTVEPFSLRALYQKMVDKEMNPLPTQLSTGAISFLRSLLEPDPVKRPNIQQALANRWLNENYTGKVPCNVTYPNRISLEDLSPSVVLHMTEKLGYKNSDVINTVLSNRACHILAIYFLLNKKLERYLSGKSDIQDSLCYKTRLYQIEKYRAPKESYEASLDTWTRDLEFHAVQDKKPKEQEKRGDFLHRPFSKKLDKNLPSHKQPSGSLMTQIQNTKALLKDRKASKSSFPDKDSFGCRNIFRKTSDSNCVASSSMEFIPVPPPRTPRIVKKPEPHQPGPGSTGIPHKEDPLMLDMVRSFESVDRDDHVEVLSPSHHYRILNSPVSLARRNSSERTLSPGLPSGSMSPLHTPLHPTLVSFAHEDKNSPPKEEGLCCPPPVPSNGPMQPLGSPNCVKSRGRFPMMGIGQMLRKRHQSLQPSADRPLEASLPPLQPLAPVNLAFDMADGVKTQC

ITK = ITK (Homo sapiens (Human), UniProt Q08881); assay: KINOMEscan scanMAX; assay type: binding; details: 2000 nM; read-out: Percent Control
LKB1 (STK11) = LKB1 (STK11) (Homo sapiens (Human), UniProt Q15831); assay: KINOMEscan scanMAX; assay type: binding; details: 2000 nM; read-out: Percent Control
MAP3K2 = MAP3K2 (Homo sapiens (Human), UniProt Q9Y2U5); assay: KINOMEscan scanMAX; assay type: binding; details: 2000 nM; read-out: Percent Control
MARK1 = MARK1 (Homo sapiens (Human), UniProt Q9P0L2); assay: KINOMEscan scanMAX; assay type: binding; details: 2000 nM; read-out: Percent Control
MARK1, sequence (Q9P0L2 whole entry): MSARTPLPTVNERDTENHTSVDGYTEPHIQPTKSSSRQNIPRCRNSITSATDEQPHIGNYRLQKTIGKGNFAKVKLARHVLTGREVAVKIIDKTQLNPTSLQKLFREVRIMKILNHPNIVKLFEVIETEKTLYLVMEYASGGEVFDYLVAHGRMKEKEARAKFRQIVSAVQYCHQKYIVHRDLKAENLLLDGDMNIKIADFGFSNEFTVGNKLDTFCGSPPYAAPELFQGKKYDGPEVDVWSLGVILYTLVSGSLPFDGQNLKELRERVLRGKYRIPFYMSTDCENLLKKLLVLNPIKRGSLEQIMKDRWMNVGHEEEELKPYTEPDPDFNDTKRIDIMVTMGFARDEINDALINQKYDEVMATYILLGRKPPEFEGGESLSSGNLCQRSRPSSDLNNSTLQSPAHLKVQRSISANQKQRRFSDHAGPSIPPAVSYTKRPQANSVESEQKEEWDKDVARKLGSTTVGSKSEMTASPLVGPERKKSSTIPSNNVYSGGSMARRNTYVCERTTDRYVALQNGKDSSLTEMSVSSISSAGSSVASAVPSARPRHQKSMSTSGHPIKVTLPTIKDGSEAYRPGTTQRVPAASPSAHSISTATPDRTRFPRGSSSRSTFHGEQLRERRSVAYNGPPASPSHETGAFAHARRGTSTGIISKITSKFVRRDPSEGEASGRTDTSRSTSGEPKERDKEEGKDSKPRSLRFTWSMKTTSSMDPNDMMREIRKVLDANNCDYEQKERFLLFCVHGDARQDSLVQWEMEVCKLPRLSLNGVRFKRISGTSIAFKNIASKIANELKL

MELK = MELK (Homo sapiens (Human), UniProt Q14680); assay: KINOMEscan scanMAX; assay type: binding; details: 2000 nM; read-out: Percent Control
MERTK = MERTK (Homo sapiens (Human), UniProt Q12866); assay: KINOMEscan scanMAX; assay type: binding; details: 2000 nM; read-out: Percent Control
MST1 (STK4) = MST1 (STK4) (Homo sapiens (Human), UniProt Q13043); assay: KINOMEscan scanMAX; assay type: binding; details: 2000 nM; read-out: Percent Control
MYLK4 = MYLK4 (Homo sapiens (Human), UniProt Q86YV6); assay: KINOMEscan scanMAX; assay type: binding; details: 2000 nM; read-out: Percent Control
MYLK4, sequence (Q86YV6 whole entry): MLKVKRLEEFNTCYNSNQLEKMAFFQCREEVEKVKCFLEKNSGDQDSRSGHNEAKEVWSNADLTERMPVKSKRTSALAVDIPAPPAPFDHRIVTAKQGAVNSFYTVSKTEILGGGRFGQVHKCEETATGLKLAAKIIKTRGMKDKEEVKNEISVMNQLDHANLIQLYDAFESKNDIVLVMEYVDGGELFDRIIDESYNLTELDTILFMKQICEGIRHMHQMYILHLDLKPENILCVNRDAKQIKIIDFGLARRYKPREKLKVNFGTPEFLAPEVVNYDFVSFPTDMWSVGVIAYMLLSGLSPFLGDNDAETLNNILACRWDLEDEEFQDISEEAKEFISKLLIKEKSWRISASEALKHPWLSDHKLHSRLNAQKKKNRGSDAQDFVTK

MYO3A = MYO3A (Homo sapiens (Human), UniProt Q8NEV4); assay: KINOMEscan scanMAX; assay type: binding; details: 2000 nM; read-out: Percent Control
NEK5 = NEK5 (Homo sapiens (Human), UniProt Q6P3R8); assay: KINOMEscan scanMAX; assay type: binding; details: 2000 nM; read-out: Percent Control
PCTK2 (CDK17) = PCTK2 (CDK17) (Homo sapiens (Human), UniProt Q00537); assay: KINOMEscan scanMAX; assay type: binding; details: 2000 nM; read-out: Percent Control
[3] = target: PFCDPK1(P.falciparum) (CDPK1) (Plasmodium falciparum (isolate 3D7), UniProt P62344); assay: KINOMEscan scanMAX; assay type: binding; details: 2000 nM; read-out: Percent Control
PIK3CA(E545A) = PIK3CA(E545A) (Homo sapiens (Human), UniProt P42336, E545A); assay: KINOMEscan scanMAX; assay type: binding; details: 2000 nM; read-out: Percent Control
PLK4 = PLK4 (Homo sapiens (Human), UniProt O00444); assay: KINOMEscan scanMAX; assay type: binding; details: 2000 nM; read-out: Percent Control
PRKD3 = PRKD3 (Homo sapiens (Human), UniProt O94806); assay: KINOMEscan scanMAX; assay type: binding; details: 2000 nM; read-out: Percent Control
[4] = target: RPS6KA4(Kin.Dom.1-N-terminal) (Homo sapiens (Human), UniProt O75676); assay: KINOMEscan scanMAX; assay type: binding; details: 2000 nM; read-out: Percent Control
[5] = target: RSK1(Kin.Dom.2-C-terminal) (RPS6KA1) (Homo sapiens (Human), UniProt Q15418); assay: KINOMEscan scanMAX; assay type: binding; details: 2000 nM; read-out: Percent Control
RSK1(Kin.Dom.2-C-terminal) (RPS6KA1), sequence (Q15418 418-675): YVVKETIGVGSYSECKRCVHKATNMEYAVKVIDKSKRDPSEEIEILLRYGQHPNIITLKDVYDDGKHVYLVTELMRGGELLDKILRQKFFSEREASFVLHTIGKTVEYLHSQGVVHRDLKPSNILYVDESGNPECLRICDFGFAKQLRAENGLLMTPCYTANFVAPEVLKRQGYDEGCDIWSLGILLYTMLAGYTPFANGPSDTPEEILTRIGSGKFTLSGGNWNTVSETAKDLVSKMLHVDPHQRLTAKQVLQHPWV

S6K1 (RPS6KB1) = S6K1 (RPS6KB1) (Homo sapiens (Human), UniProt P23443); assay: KINOMEscan scanMAX; assay type: binding; details: 2000 nM; read-out: Percent Control
TAK1 (MAP3K7) = TAK1 (MAP3K7) (Homo sapiens (Human), UniProt O43318); assay: KINOMEscan scanMAX; assay type: binding; details: 2000 nM; read-out: Percent Control
WNK3 = WNK3 (Homo sapiens (Human), UniProt Q9BYP7); assay: KINOMEscan scanMAX; assay type: binding; details: 2000 nM; read-out: Percent Control
WNK4 = WNK4 (Homo sapiens (Human), UniProt Q96J92); assay: KINOMEscan scanMAX; assay type: binding; details: 2000 nM; read-out: Percent Control
WNK4, sequence (Q96J92 whole entry): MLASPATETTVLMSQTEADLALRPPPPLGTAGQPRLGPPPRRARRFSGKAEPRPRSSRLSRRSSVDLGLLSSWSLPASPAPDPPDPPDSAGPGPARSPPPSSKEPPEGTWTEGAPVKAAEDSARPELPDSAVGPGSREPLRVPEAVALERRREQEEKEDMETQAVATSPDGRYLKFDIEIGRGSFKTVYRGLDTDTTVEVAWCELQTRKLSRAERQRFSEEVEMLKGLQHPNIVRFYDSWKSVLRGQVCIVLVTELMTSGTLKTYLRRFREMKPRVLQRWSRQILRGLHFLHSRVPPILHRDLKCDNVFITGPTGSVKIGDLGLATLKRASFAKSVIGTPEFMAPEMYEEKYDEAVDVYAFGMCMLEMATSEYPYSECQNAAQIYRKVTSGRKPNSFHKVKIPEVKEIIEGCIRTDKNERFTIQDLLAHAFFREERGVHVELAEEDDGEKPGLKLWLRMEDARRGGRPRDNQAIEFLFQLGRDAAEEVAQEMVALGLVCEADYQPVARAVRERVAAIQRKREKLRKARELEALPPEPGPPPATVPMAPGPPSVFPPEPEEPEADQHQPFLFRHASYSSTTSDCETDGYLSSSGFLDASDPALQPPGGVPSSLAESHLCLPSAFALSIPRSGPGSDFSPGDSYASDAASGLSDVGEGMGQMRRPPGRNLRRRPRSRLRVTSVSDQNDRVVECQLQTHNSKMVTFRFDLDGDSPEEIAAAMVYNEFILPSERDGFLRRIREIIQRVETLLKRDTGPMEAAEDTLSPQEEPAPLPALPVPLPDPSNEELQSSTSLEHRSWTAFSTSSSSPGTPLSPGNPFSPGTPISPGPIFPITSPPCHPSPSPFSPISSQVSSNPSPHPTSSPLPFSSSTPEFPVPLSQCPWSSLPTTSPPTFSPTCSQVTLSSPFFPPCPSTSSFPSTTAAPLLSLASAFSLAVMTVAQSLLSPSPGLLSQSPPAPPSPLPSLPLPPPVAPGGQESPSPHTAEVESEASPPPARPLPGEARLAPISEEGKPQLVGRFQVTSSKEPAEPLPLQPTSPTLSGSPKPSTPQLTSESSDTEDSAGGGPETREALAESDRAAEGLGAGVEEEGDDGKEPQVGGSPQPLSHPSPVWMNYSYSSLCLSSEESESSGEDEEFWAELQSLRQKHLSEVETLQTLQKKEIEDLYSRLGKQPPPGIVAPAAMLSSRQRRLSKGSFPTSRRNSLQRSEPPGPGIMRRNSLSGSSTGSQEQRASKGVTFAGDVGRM

CDK19 = CDK19 (Homo sapiens (Human), UniProt Q9BWU1); assay: DiscoverX Kd assay
CDK19, sequence (Q9BWU1 whole entry): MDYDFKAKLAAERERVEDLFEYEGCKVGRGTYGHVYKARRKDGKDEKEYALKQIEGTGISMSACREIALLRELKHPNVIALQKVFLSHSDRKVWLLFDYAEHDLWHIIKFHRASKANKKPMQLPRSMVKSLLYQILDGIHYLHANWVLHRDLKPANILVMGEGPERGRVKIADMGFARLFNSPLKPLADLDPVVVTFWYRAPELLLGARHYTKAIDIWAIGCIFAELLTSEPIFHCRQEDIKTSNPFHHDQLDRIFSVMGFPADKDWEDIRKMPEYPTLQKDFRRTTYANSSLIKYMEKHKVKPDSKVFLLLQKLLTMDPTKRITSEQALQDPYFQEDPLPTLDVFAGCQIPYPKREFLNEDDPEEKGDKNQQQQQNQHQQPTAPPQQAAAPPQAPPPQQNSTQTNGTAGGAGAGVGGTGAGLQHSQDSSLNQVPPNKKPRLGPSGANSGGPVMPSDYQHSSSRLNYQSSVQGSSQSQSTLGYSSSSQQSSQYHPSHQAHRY

## CN1CCN(C(=O)c2ccc3cc(CCNc4ccnc5ccc(C#N)cc45)ccc3c2)CC1 [compound 6148, 4-((2-(6-(4-methylpiperazine-1-carbonyl)naphthalen-2-yl)ethyl)amino)quinoline-6-carbonitrile]
[1]
  remaining binding at 2 µM: 74%
[2]
  remaining binding at 2 µM: 81%
ACVR1
  remaining binding at 2 µM: 92%
ACVR2A
  remaining binding at 2 µM: 89%
BMX
  remaining binding at 2 µM: 100%
CAMK2B
  remaining binding at 2 µM: 97%
CDC2L1 (CDK11B)
  remaining binding at 2 µM: 96%
CDK2
  remaining binding at 2 µM: 95%
CLK1
  remaining binding at 2 µM: 60%
CLK3
  remaining binding at 2 µM: 65%
DAPK2
  remaining binding at 2 µM: 100%
EGFR
  remaining binding at 2 µM: 91%
EPHA5
  remaining binding at 2 µM: 97%
EPHB2
  remaining binding at 2 µM: 86%
ERK2 (MAPK1)
  remaining binding at 2 µM: 93%
GAK
  remaining binding at 2 µM: 100%
HUNK
  remaining binding at 2 µM: 74%
ITK
  remaining binding at 2 µM: 93%
LKB1 (STK11)
  remaining binding at 2 µM: 87%
MAP3K2
  remaining binding at 2 µM: 68%
MARK1
  remaining binding at 2 µM: 81%
MELK
  remaining binding at 2 µM: 97%
MERTK
  remaining binding at 2 µM: 89%
MST1 (STK4)
  remaining binding at 2 µM: 95%
MYLK4
  remaining binding at 2 µM: 98%
MYO3A
  remaining binding at 2 µM: 100%
NEK5
  remaining binding at 2 µM: 97%
PCTK2 (CDK17)
  remaining binding at 2 µM: 98%
[3]
  remaining binding at 2 µM: 83%
PIK3CA(E545A)
  remaining binding at 2 µM: 73%
PLK4
  remaining binding at 2 µM: 90%
PRKD3
  remaining binding at 2 µM: 100%
[4]
  remaining binding at 2 µM: 100%
[5]
  remaining binding at 2 µM: 97%
S6K1 (RPS6KB1)
  remaining binding at 2 µM: 78%
TAK1 (MAP3K7)
  remaining binding at 2 µM: 63%
WNK3
  remaining binding at 2 µM: 75%
WNK4
  remaining binding at 2 µM: 69%
CDK19
  Kd: 44 nM
